# Measurements taken from patent EP2008653A1, “Serotonergic compounds for treating neuronal illnesses” (Charité-Universitätsmedizin Berlin, priority 2007, dated 2008).
# System: fokalen Ischämie in Mäusen
# Assay: Mouse model of focal ischemia (30 min MCAo/reperfusion), overall outcome
# Assay type: in vivo, Mäuse
# Conditions: Mirtazapin 20 mg/kg i.p. starting 7 days after MCAo/reperfusion
# From the text: Die erfindungsgemäßen neuroprotektiven und neuroregenerativen/neuroplastischen Effekte von SSRI auf neuronale Krankheiten wurde anhand eines anerkannten Tiermodells zur fokalen Ischämie in Mäusen untersucht. […] Tag nach der Induktion der Ischämie einsetzte.
# Anschließend wurden die SRRI Effekte auf das Volumen der ischämischen Läsionen ausgewertet. Ferner wurden die Tiere Standard-Verhaltenstests unterzogen. Zudem wurden die Konzentrationen ausgewählter Neurotransmitter erfaßt.
# Die Tierversuche wurden nach den Maßgaben des Tierschutzgesetzes in Übereinstimmung mit institutionellen und internationalen Richtlinien durchgeführt. Männliche 12936/SvEv-Mäuse (18-20 g, Bundesamt für Gesundheitsschutz Berlin) wurden in Gruppen von 4-5 Mäusen pro Käfig in Standardlaborkäfigen bei einer Umgebungstemperatur von 20-21°C bei einem 12 h-Licht-Dunkel-Rhythmus (8.00 Uhr/20.00 Uhr) mit freiem Zugang zu Futter und Wasser gehalten. Die Narkose der Mäuse erfolgte mit 1% Isofluran in 69% N20 und 30% 02 mit einem Narkoseverdampfer. Die Tiere wurden einer 30 min Fliamentokklusion der Arteria cerebri media (MCAo) unterworfen, wobei die Körpertemperatur und der regionale cerebrale Blutfluss wie beschrieben gemessen wurden (Endres et al., 1998). […]
smiles,measurement,value
"CN1CCN2c3ncccc3Cc3ccccc3C2C1 (racemic) [Mirtazapin, (RS)-(±)-2-Methyl-1,2,3,4,10,14b-hexahydropyrazino [2,1-a]pyrido[2,3-c][2]benzazepin]",Ergebnisse (overall outcome in the MCAo model),"entsprachen denjenigen, die mit Citalopram erreicht wurden"
